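Dose response: 5 concentrations. Exposure: 48 h. Format: 96-well plates. Endpoint: linear interpolation; highest concentration if not reached. The concentration for full growth arrest is given as TGI.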

For one test, the system named is NCI-H23 lung. Briefly: inhibition of tumour cell growth, NCI panel, 48 h.
Consider `COc1cc2c(c(OC)c1OC)-c1ccc(OC)c(=O)cc1C(NC(=O)c1ccc(N=[N+]=[N-])cc1)CC2` (stereo not given), for which the TGI is greater than 100 µM.

`Clc1ccc(C(c2ccc(Cl)cc2)c2ccccn2)cc1` displayed a TGI greater than 100 µM.

For the compound `CC(C)=Cc1cc(C(=O)Nc2ccc(Cl)c(Cl)c2)nc(N)n1`, the TGI is greater than 100 µM.

In the case of `Cn1cnc([N+](=O)[O-])c1Sc1nc2ccccc2[nH]1`, the TGI stood at 48.4 µM.

Turning to `CCCCCCN(CCCCCC)C(=O)Cc1c2n(c3ccccc13)Cc1ccccc1-2`, the TGI was greater than 100 µM.

In the case of `CCCCCCCCC/C=C1\CCC(CN2CCOCC2)C1=O` (stereo not given), the TGI was found to be 9.18 µM.

In the case of `CC(=O)OC1COC(n2ccc3cc(Br)c([N+](=O)[O-])cc32)C(OC(C)=O)C1OC(C)=O` (stereo not given), the TGI came out at 61.3 µM.

`CC(=O)OC1=CC(n2cc(F)c(=O)[nH]c2=O)OC(C)C1=O` (stereo not given) displayed a TGI greater than 100 µM.

As to `CCOC(=O)NC(=O)c1cn(CCCO)c(=O)[nH]c1=O`, the TGI was greater than 100 µM.

Turning to `CN(C)c1nc(=Nc2ccc(N=c3nc(N(C)C)ss3)cc2)ss1`, the TGI turned out to be 20.1 µM.

With `CSc1nc(NC2OCC(OC(C)=O)C(OC(C)=O)C2OC(C)=O)c(N=CC=Nc2c(NC3OCC(OC(C)=O)C(OC(C)=O)C3OC(C)=O)nc(SC)[nH]c2=O)c(=O)[nH]1` (stereo not given), the TGI is greater than 100 µM.

`CCc1cc(Cc2cc(CC)c(NC(=O)C(=O)Cc3ccccn3)c(CC)c2Cl)c(Cl)c(CC)c1NC(=O)C(=O)Cc1ccccn1`: the TGI is greater than 100 µM.

For the compound `C[Si](C)(C)C1(Sc2ccccc2)SCCCS1`, the TGI was greater than 100 µM.

`OCc1ccc(-c2ccc(-c3ccc(CO)s3)o2)s1` had a TGI greater than 90.9 µM.

`c1ccc(COc2cccc3ccc[n+](Cc4ccccc4)c23)cc1` yielded a TGI of 23.9 µM.

As to `O=S1(=O)OCCOS(=O)(=O)C1Br`, the TGI was greater than 100 µM.

For `CCOC(=O)C(=C=C=C(c1ccccc1)c1ccccc1)C(=O)OCC`, the TGI is greater than 100 µM.

With `CC1=CC(O)(c2ccc(-c3ccccc3Cl)cc2)OC1=O` (stereo not given), the TGI was greater than 100 µM.

`C/C(=N\NC(=S)NC(CCC(=O)O)C(=O)O)c1ccccn1` (stereo not given) gave a TGI greater than 100 µM.

Compound `C#CC1(O)CCC2C3CCc4cc(Oc5nc(F)nc(-c6c7ccccc7c7sc8ccccc8n67)n5)ccc4C3CC[C@@]21C` (stereo not given in full) registered a TGI greater than 100 µM.

Turning to `Cc1ccc(NC(=O)c2cc3cc(N=Nc4ccccc4C(=O)O)ccc3oc2=O)cc1`, the TGI is greater than 100 µM.

`COc1ccc(S(=O)(=O)NNS(C)(=O)=O)cc1` displayed a TGI greater than 100 µM.

Regarding `O=C(/C=C\c1ccc(Cl)c(Cl)c1)c1ccc(Cl)cc1Cl`, the TGI came to 14.1 µM.

With `CC(C)C(C)/C=C\C(C)C1CCC2C3=CC=C4CC(O)CCC4(C)C3CCC21C` (stereo not given), the TGI is greater than 100 µM.

On to `CC(=O)/C(=C\c1cccc([N+](=O)[O-])c1)C(=O)Nc1ccccc1C`, for which the TGI was greater than 100 µM.

Compound `CCN1c2ccccc2C(C(SC)S(=O)(=O)c2ccc(C)cc2)c2c1[nH]c(=O)n(C)c2=O` (stereo not given) returned a TGI greater than 100 µM.

The subject of a further test is UACC-62 melanoma. Briefly: inhibition of tumour cell growth, NCI panel, 48 h.
`O=c1cc(-c2ccccc2)oc2cc(OCCCOc3ccc4c(=O)cc(-c5ccccc5)oc4c3)ccc12` had a TGI greater than 100 µM.

`COc1cc2c(c(OC)c1OC)-c1ccc(OC)c(=O)cc1C(NC(=O)c1ccc(N=[N+]=[N-])cc1)CC2` (stereo not given) gave a TGI of 31.1 µM.

The compound `Clc1ccc(C(c2ccc(Cl)cc2)c2ccccn2)cc1` had a TGI of 33.4 µM.

As to `CC(C)=Cc1cc(C(=O)Nc2ccc(Cl)c(Cl)c2)nc(N)n1`, the TGI is greater than 100 µM.

Compound `CCCCCCN(CCCCCC)C(=O)Cc1c2n(c3ccccc13)Cc1ccccc1-2` registered a TGI greater than 100 µM.

Compound `CCCCCCCCC/C=C1\CCC(CN2CCOCC2)C1=O` (stereo not given) returned a TGI of 10.7 µM.

Take `CC(=O)OC1COC(n2ccc3cc(Br)c([N+](=O)[O-])cc32)C(OC(C)=O)C1OC(C)=O` (stereo not given): the TGI was 46.5 µM.

`CC(=O)OC1=CC(n2cc(F)c(=O)[nH]c2=O)OC(C)C1=O` (stereo not given) displayed a TGI greater than 100 µM.

`CCOC(=O)NC(=O)c1cn(CCCO)c(=O)[nH]c1=O` showed a TGI greater than 100 µM.

With `CN(C)c1nc(=Nc2ccc(N=c3nc(N(C)C)ss3)cc2)ss1`, the TGI was greater than 21.3 µM.

`CSc1nc(NC2OCC(OC(C)=O)C(OC(C)=O)C2OC(C)=O)c(N=CC=Nc2c(NC3OCC(OC(C)=O)C(OC(C)=O)C3OC(C)=O)nc(SC)[nH]c2=O)c(=O)[nH]1` (stereo not given) gave a TGI greater than 100 µM.

The compound `CCc1cc(Cc2cc(CC)c(NC(=O)C(=O)Cc3ccccn3)c(CC)c2Cl)c(Cl)c(CC)c1NC(=O)C(=O)Cc1ccccn1` displayed a TGI greater than 100 µM.

The compound `C[Si](C)(C)C1(Sc2ccccc2)SCCCS1` displayed a TGI greater than 100 µM.

In turn, `OCc1ccc(-c2ccc(-c3ccc(CO)s3)o2)s1` yielded a TGI of 0.154 µM.

Take `c1ccc(COc2cccc3ccc[n+](Cc4ccccc4)c23)cc1`: the TGI was 20.1 µM.

The compound `O=S1(=O)OCCOS(=O)(=O)C1Br` returned a TGI greater than 100 µM.

For `CCOC(=O)C(=C=C=C(c1ccccc1)c1ccccc1)C(=O)OCC`, the TGI was determined as 37.7 µM.

Regarding `CC1=CC(O)(c2ccc(-c3ccccc3Cl)cc2)OC1=O` (stereo not given), the TGI was greater than 100 µM.

The compound `C/C(=N\NC(=S)NC(CCC(=O)O)C(=O)O)c1ccccn1` (stereo not given) yielded a TGI greater than 100 µM.

`C#CC1(O)CCC2C3CCc4cc(Oc5nc(F)nc(-c6c7ccccc7c7sc8ccccc8n67)n5)ccc4C3CC[C@@]21C` (stereo not given in full) gave a TGI greater than 100 µM.

Turning to `Cc1ccc(NC(=O)c2cc3cc(N=Nc4ccccc4C(=O)O)ccc3oc2=O)cc1`, the TGI turned out to be 85 µM.

`COc1ccc(S(=O)(=O)NNS(C)(=O)=O)cc1` had a TGI greater than 100 µM.

With `O=C(/C=C\c1ccc(Cl)c(Cl)c1)c1ccc(Cl)cc1Cl`, the TGI was found to be 35.6 µM.

`CC(C)C(C)/C=C\C(C)C1CCC2C3=CC=C4CC(O)CCC4(C)C3CCC21C` (stereo not given): the TGI was greater than 66.6 µM.

Regarding `CC(=O)/C(=C\c1cccc([N+](=O)[O-])c1)C(=O)Nc1ccccc1C`, the TGI is greater than 100 µM.

On to `CCN1c2ccccc2C(C(SC)S(=O)(=O)c2ccc(C)cc2)c2c1[nH]c(=O)n(C)c2=O` (stereo not given), for which the TGI was greater than 100 µM.

The compound `COC(OC)C(C)CC(=O)N(C)C` (stereo not given) gave a TGI greater than 100 µM.

The subject of the next test is SK-MEL-28 melanoma. In words: inhibition of tumour cell growth, NCI panel, 48 h.
Compound `O=c1cc(-c2ccccc2)oc2cc(OCCCOc3ccc4c(=O)cc(-c5ccccc5)oc4c3)ccc12` gave a TGI greater than 100 µM.

Compound `COc1cc2c(c(OC)c1OC)-c1ccc(OC)c(=O)cc1C(NC(=O)c1ccc(N=[N+]=[N-])cc1)CC2` (stereo not given) showed a TGI greater than 100 µM.

Consider `CC(C)=Cc1cc(C(=O)Nc2ccc(Cl)c(Cl)c2)nc(N)n1`, for which the TGI is greater than 100 µM.

In the case of `Cn1cnc([N+](=O)[O-])c1Sc1nc2ccccc2[nH]1`, the TGI is 26.1 µM.

Compound `CCCCCCN(CCCCCC)C(=O)Cc1c2n(c3ccccc13)Cc1ccccc1-2` displayed a TGI greater than 100 µM.

`CCCCCCCCC/C=C1\CCC(CN2CCOCC2)C1=O` (stereo not given) showed a TGI of 9.2 µM.

Compound `CC(=O)OC1COC(n2ccc3cc(Br)c([N+](=O)[O-])cc32)C(OC(C)=O)C1OC(C)=O` (stereo not given) showed a TGI greater than 100 µM.

`CC(=O)OC1=CC(n2cc(F)c(=O)[nH]c2=O)OC(C)C1=O` (stereo not given) yielded a TGI greater than 100 µM.

`CCOC(=O)NC(=O)c1cn(CCCO)c(=O)[nH]c1=O` yielded a TGI greater than 100 µM.

As for `CN(C)c1nc(=Nc2ccc(N=c3nc(N(C)C)ss3)cc2)ss1`, the TGI turned out to be 33.6 µM.

For the compound `CSc1nc(NC2OCC(OC(C)=O)C(OC(C)=O)C2OC(C)=O)c(N=CC=Nc2c(NC3OCC(OC(C)=O)C(OC(C)=O)C3OC(C)=O)nc(SC)[nH]c2=O)c(=O)[nH]1` (stereo not given), the TGI is greater than 100 µM.

`CCc1cc(Cc2cc(CC)c(NC(=O)C(=O)Cc3ccccn3)c(CC)c2Cl)c(Cl)c(CC)c1NC(=O)C(=O)Cc1ccccn1` yielded a TGI greater than 100 µM.

Values taken from PubChem BioAssay (NCI).
